In the first assay the test system is 889142-216-R-J1-PDC complex spheroid viability. The assay is described as follows: Anticancer human tumor 889142-216-R-J1-PDC patient-derived bladder carcinoma cell line growth inhibition [POLQ]. As to conditions: second compound 0.0316 µM; first compound 3.16 µM; stronger effect = lower value. In a few lines:
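PDC + HUVEC + MSC complex spheroids; POLQ inhibitors ± partner drugs; top conc. at/near clinical Cmax, else 10 microM (SN-38 1 microM), half-log dilutions; 37 degrees C, 5% CO2.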
As for `CCc1cc2c(N3CCc4c(cc(Cn5ccnc5)cc4-c4cn(C)nc4C(F)(F)F)C3=O)cc(C)nc2c(OC)n1` + Nc1ccc(C#CCN(C(=O)Cc2ncc(C(F)(F)F)cc2C(F)(F)F)c2ccc(F)cc2)nn1, the viability, T/C is 108%.
Same read-out and setting: the figure for `O=C(Nc1ccc(O)c(NS(=O)(=O)c2ccc(F)cc2)c1)c1ccc(-c2ccccc2)cc1` + Nc1ccc(C#CCN(C(=O)Cc2ncc(C(F)(F)F)cc2C(F)(F)F)c2ccc(F)cc2)nn1 is 127%.

The same assay, now with this note: second compound 0.0316 µM; first compound 10 µM; stronger effect = lower value.
In the case of `C#Cc1c(F)ccc2cc(O)cc(-c3ncc4c(N5CC6CCC(C5)N6)nc(OCC56CCCN5CC(F)C6)nc4c3F)c12` (configuration not stated) + Nc1ccc(C#CCN(C(=O)Cc2ncc(C(F)(F)F)cc2C(F)(F)F)c2ccc(F)cc2)nn1, the viability, T/C was 43.9%.
As to `CCc1cc2c(N3CCc4c(cc(Cn5ccnc5)cc4-c4cn(C)nc4C(F)(F)F)C3=O)cc(C)nc2c(OC)n1` + Nc1ccc(C#CCN(C(=O)Cc2ncc(C(F)(F)F)cc2C(F)(F)F)c2ccc(F)cc2)nn1, the viability, T/C is 80.2%.
For the compound `O=C(Nc1ccc(O)c(NS(=O)(=O)c2ccc(F)cc2)c1)c1ccc(-c2ccccc2)cc1` + Nc1ccc(C#CCN(C(=O)Cc2ncc(C(F)(F)F)cc2C(F)(F)F)c2ccc(F)cc2)nn1, the viability, T/C is 72%.

The same assay, now with this note: second compound 0.1 µM; first compound 0.0316 µM; stronger effect = lower value.
For `C#Cc1c(F)ccc2cc(O)cc(-c3ncc4c(N5CC6CCC(C5)N6)nc(OCC56CCCN5CC(F)C6)nc4c3F)c12` (configuration not stated) + Nc1ccc(C#CCN(C(=O)Cc2ncc(C(F)(F)F)cc2C(F)(F)F)c2ccc(F)cc2)nn1, the viability, T/C is 103%.
Regarding `CCc1cc2c(N3CCc4c(cc(Cn5ccnc5)cc4-c4cn(C)nc4C(F)(F)F)C3=O)cc(C)nc2c(OC)n1` + Nc1ccc(C#CCN(C(=O)Cc2ncc(C(F)(F)F)cc2C(F)(F)F)c2ccc(F)cc2)nn1, the viability, T/C was 123%.
For `O=C(Nc1ccc(O)c(NS(=O)(=O)c2ccc(F)cc2)c1)c1ccc(-c2ccccc2)cc1` + Nc1ccc(C#CCN(C(=O)Cc2ncc(C(F)(F)F)cc2C(F)(F)F)c2ccc(F)cc2)nn1, the viability, T/C is 104%.

Staying with this assay, now noted: second compound 0.1 µM; first compound 0.1 µM; stronger effect = lower value.
With `C#Cc1c(F)ccc2cc(O)cc(-c3ncc4c(N5CC6CCC(C5)N6)nc(OCC56CCCN5CC(F)C6)nc4c3F)c12` (configuration not stated) + Nc1ccc(C#CCN(C(=O)Cc2ncc(C(F)(F)F)cc2C(F)(F)F)c2ccc(F)cc2)nn1, the viability, T/C was 119%.
Take `CCc1cc2c(N3CCc4c(cc(Cn5ccnc5)cc4-c4cn(C)nc4C(F)(F)F)C3=O)cc(C)nc2c(OC)n1` + Nc1ccc(C#CCN(C(=O)Cc2ncc(C(F)(F)F)cc2C(F)(F)F)c2ccc(F)cc2)nn1: the viability, T/C is 97.6%.
Still for that read-out and setting: the figure for `O=C(Nc1ccc(O)c(NS(=O)(=O)c2ccc(F)cc2)c1)c1ccc(-c2ccccc2)cc1` + Nc1ccc(C#CCN(C(=O)Cc2ncc(C(F)(F)F)cc2C(F)(F)F)c2ccc(F)cc2)nn1 is 90.7%.

Staying with this assay, now noted: second compound 0.1 µM; first compound 0.316 µM; stronger effect = lower value.
Regarding `C#Cc1c(F)ccc2cc(O)cc(-c3ncc4c(N5CC6CCC(C5)N6)nc(OCC56CCCN5CC(F)C6)nc4c3F)c12` (configuration not stated) + Nc1ccc(C#CCN(C(=O)Cc2ncc(C(F)(F)F)cc2C(F)(F)F)c2ccc(F)cc2)nn1, the viability, T/C is 85.3%.
Consider `CCc1cc2c(N3CCc4c(cc(Cn5ccnc5)cc4-c4cn(C)nc4C(F)(F)F)C3=O)cc(C)nc2c(OC)n1` + Nc1ccc(C#CCN(C(=O)Cc2ncc(C(F)(F)F)cc2C(F)(F)F)c2ccc(F)cc2)nn1, for which the viability, T/C was 126%.
For the compound `O=C(Nc1ccc(O)c(NS(=O)(=O)c2ccc(F)cc2)c1)c1ccc(-c2ccccc2)cc1` + Nc1ccc(C#CCN(C(=O)Cc2ncc(C(F)(F)F)cc2C(F)(F)F)c2ccc(F)cc2)nn1, the viability, T/C is 94.1%.

The same assay, now with this note: second compound 0.1 µM; first compound 1 µM; stronger effect = lower value.
Consider `C#Cc1c(F)ccc2cc(O)cc(-c3ncc4c(N5CC6CCC(C5)N6)nc(OCC56CCCN5CC(F)C6)nc4c3F)c12` (configuration not stated) + Nc1ccc(C#CCN(C(=O)Cc2ncc(C(F)(F)F)cc2C(F)(F)F)c2ccc(F)cc2)nn1, for which the viability, T/C is 79%.
Consider `CCc1cc2c(N3CCc4c(cc(Cn5ccnc5)cc4-c4cn(C)nc4C(F)(F)F)C3=O)cc(C)nc2c(OC)n1` + Nc1ccc(C#CCN(C(=O)Cc2ncc(C(F)(F)F)cc2C(F)(F)F)c2ccc(F)cc2)nn1, for which the viability, T/C is 133%.
Consider `O=C(Nc1ccc(O)c(NS(=O)(=O)c2ccc(F)cc2)c1)c1ccc(-c2ccccc2)cc1` + Nc1ccc(C#CCN(C(=O)Cc2ncc(C(F)(F)F)cc2C(F)(F)F)c2ccc(F)cc2)nn1, for which the viability, T/C was 126%.

The assay is the same for the next values; noted with them: second compound 0.1 µM; first compound 3.16 µM; stronger effect = lower value.
Turning to `C#Cc1c(F)ccc2cc(O)cc(-c3ncc4c(N5CC6CCC(C5)N6)nc(OCC56CCCN5CC(F)C6)nc4c3F)c12` (configuration not stated) + Nc1ccc(C#CCN(C(=O)Cc2ncc(C(F)(F)F)cc2C(F)(F)F)c2ccc(F)cc2)nn1, the viability, T/C is 86.6%.
For the compound `CCc1cc2c(N3CCc4c(cc(Cn5ccnc5)cc4-c4cn(C)nc4C(F)(F)F)C3=O)cc(C)nc2c(OC)n1` + Nc1ccc(C#CCN(C(=O)Cc2ncc(C(F)(F)F)cc2C(F)(F)F)c2ccc(F)cc2)nn1, the viability, T/C is 113%.
For the compound `O=C(Nc1ccc(O)c(NS(=O)(=O)c2ccc(F)cc2)c1)c1ccc(-c2ccccc2)cc1` + Nc1ccc(C#CCN(C(=O)Cc2ncc(C(F)(F)F)cc2C(F)(F)F)c2ccc(F)cc2)nn1, the viability, T/C is 129%.

The assay is the same for the next values; noted with them: second compound 0.1 µM; first compound 10 µM; stronger effect = lower value.
Regarding `C#Cc1c(F)ccc2cc(O)cc(-c3ncc4c(N5CC6CCC(C5)N6)nc(OCC56CCCN5CC(F)C6)nc4c3F)c12` (configuration not stated) + Nc1ccc(C#CCN(C(=O)Cc2ncc(C(F)(F)F)cc2C(F)(F)F)c2ccc(F)cc2)nn1, the viability, T/C was 38.9%.
Take `CCc1cc2c(N3CCc4c(cc(Cn5ccnc5)cc4-c4cn(C)nc4C(F)(F)F)C3=O)cc(C)nc2c(OC)n1` + Nc1ccc(C#CCN(C(=O)Cc2ncc(C(F)(F)F)cc2C(F)(F)F)c2ccc(F)cc2)nn1: the viability, T/C is 79.5%.
As to `O=C(Nc1ccc(O)c(NS(=O)(=O)c2ccc(F)cc2)c1)c1ccc(-c2ccccc2)cc1` + Nc1ccc(C#CCN(C(=O)Cc2ncc(C(F)(F)F)cc2C(F)(F)F)c2ccc(F)cc2)nn1, the viability, T/C was 87.3%.

The assay is the same for the next values; noted with them: second compound 0.316 µM; first compound 0.0316 µM; stronger effect = lower value.
`C#Cc1c(F)ccc2cc(O)cc(-c3ncc4c(N5CC6CCC(C5)N6)nc(OCC56CCCN5CC(F)C6)nc4c3F)c12` (configuration not stated) + Nc1ccc(C#CCN(C(=O)Cc2ncc(C(F)(F)F)cc2C(F)(F)F)c2ccc(F)cc2)nn1: the viability, T/C was 115%.
For `CCc1cc2c(N3CCc4c(cc(Cn5ccnc5)cc4-c4cn(C)nc4C(F)(F)F)C3=O)cc(C)nc2c(OC)n1` + Nc1ccc(C#CCN(C(=O)Cc2ncc(C(F)(F)F)cc2C(F)(F)F)c2ccc(F)cc2)nn1, the viability, T/C is 104%.
On to `O=C(Nc1ccc(O)c(NS(=O)(=O)c2ccc(F)cc2)c1)c1ccc(-c2ccccc2)cc1` + Nc1ccc(C#CCN(C(=O)Cc2ncc(C(F)(F)F)cc2C(F)(F)F)c2ccc(F)cc2)nn1, for which the viability, T/C is 96.2%.

The assay is the same for the next values; noted with them: second compound 0.316 µM; first compound 0.1 µM; stronger effect = lower value.
In the case of `C#Cc1c(F)ccc2cc(O)cc(-c3ncc4c(N5CC6CCC(C5)N6)nc(OCC56CCCN5CC(F)C6)nc4c3F)c12` (configuration not stated) + Nc1ccc(C#CCN(C(=O)Cc2ncc(C(F)(F)F)cc2C(F)(F)F)c2ccc(F)cc2)nn1, the viability, T/C is 99.4%.
For the compound `CCc1cc2c(N3CCc4c(cc(Cn5ccnc5)cc4-c4cn(C)nc4C(F)(F)F)C3=O)cc(C)nc2c(OC)n1` + Nc1ccc(C#CCN(C(=O)Cc2ncc(C(F)(F)F)cc2C(F)(F)F)c2ccc(F)cc2)nn1, the viability, T/C is 119%.
`O=C(Nc1ccc(O)c(NS(=O)(=O)c2ccc(F)cc2)c1)c1ccc(-c2ccccc2)cc1` + Nc1ccc(C#CCN(C(=O)Cc2ncc(C(F)(F)F)cc2C(F)(F)F)c2ccc(F)cc2)nn1: the viability, T/C was 82.1%.

The assay is the same for the next values; noted with them: second compound 0.316 µM; first compound 0.316 µM; stronger effect = lower value.
With `C#Cc1c(F)ccc2cc(O)cc(-c3ncc4c(N5CC6CCC(C5)N6)nc(OCC56CCCN5CC(F)C6)nc4c3F)c12` (configuration not stated) + Nc1ccc(C#CCN(C(=O)Cc2ncc(C(F)(F)F)cc2C(F)(F)F)c2ccc(F)cc2)nn1, the viability, T/C is 73.5%.
As to `CCc1cc2c(N3CCc4c(cc(Cn5ccnc5)cc4-c4cn(C)nc4C(F)(F)F)C3=O)cc(C)nc2c(OC)n1` + Nc1ccc(C#CCN(C(=O)Cc2ncc(C(F)(F)F)cc2C(F)(F)F)c2ccc(F)cc2)nn1, the viability, T/C was 123%.
On to `O=C(Nc1ccc(O)c(NS(=O)(=O)c2ccc(F)cc2)c1)c1ccc(-c2ccccc2)cc1` + Nc1ccc(C#CCN(C(=O)Cc2ncc(C(F)(F)F)cc2C(F)(F)F)c2ccc(F)cc2)nn1, for which the viability, T/C is 110%.

The values above are taken from PubChem BioAssay AID1963831 (Molecular Pharmacology Branch, DTP, NCI, 2024).
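Also: spheroids exposed to compounds for seven days; 100% = DMSO vehicle control viability.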
